Data as given in US20250297323A1, “METHODS OF USING LONG NON-CODING RNA-8 (TROLL-8) AS A TARGET FOR CANCER DETECTION AND TREATMENT” (H. LEE MOFFITT CANCER CENTER AND RESEARCH INSTITUTE, INC., priority 2022, published 2025).

T1: carnitine palmitoyltransferase 1A (CPT1A) (human, UniProt P50416 2-773)
T1 construct: Endogenous protein immunoprecipitated from cell lysate with anti-CPT1A antibody (15184-1-AP, Proteintech); also called FAO rate-limiting enzyme
T1 sequence (looked up): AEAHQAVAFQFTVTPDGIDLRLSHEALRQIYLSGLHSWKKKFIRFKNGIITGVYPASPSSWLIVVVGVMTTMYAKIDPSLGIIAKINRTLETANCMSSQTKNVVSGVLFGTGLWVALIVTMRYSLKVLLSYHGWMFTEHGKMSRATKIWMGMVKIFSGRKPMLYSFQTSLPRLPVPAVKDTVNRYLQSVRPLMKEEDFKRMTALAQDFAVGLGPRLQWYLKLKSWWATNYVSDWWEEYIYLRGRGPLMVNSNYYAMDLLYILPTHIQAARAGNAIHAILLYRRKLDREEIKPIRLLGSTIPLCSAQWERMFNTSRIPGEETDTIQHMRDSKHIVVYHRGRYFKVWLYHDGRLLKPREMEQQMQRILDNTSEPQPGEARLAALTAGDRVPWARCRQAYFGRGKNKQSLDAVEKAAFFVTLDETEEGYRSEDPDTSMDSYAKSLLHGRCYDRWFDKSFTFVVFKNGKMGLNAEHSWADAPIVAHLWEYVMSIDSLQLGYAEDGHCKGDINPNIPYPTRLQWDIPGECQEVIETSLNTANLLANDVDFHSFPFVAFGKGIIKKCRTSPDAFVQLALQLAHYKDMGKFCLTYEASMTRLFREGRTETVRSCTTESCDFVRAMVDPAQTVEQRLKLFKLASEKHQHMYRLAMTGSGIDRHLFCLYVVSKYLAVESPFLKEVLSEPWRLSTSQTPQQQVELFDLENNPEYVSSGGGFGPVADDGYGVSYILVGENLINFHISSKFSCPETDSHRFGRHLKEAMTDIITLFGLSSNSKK


What was measured:
CA1D cells = assay: Seahorse XF Cell Mito Stress Test (oxygen consumption rate); type: cell-based, human; conditions: siTROLL-8 vs siNT CA1D cells; OCR normalized to groups without inhibitor; Etomoxir 4.0 μM, UK5099 2.0 μM, BPTES 3.0 μM
Procedure: The oxygen consumption rate (OCR) of cells was measured on the Seahorse XF96 extracellular flux analyzer (Agilent Technologies) using a Seahorse XF Cell Mito Stress Test kit in accordance with the manufacturer's instructions. Briefly, siNT or siTROLL-8 CA1D cells (3.0×10^4 cells/well) were seeded in 6 wells (technical replicates) of a 96 well Agilent Seahorse XF Cell Culture Microplate in full growth medium and attached overnight. Hydrate a sensor cartridge in Seahorse XF Calibrant in a non-CO2 incubator at 37° C. overnight. On the day of assay, cells were carefully washed and the growth medium was replaced with prewarmed Seahorse XF base medium (Agilent Technologies) supplemented with 5 mM HEPES, 10 mM glucose, 1 mM sodium pyruvate, and 2 mM L-Glutamine, pH 7.4). The plates of cells in assay medium were incubated in a non-CO2 incubator at 37° C. for 1 h. Prepare compound stock solutions for loading sensor cartridge ports and load the XF96 sensor cartridge to Seahorse XF96 analyzer. Take three basal measurements and determine oxygen and proton concentration in the medium. […]

CPT1A = assay: LC-MS of carnitine and fatty acyl-carnitine to reflect CPT1A activity; type: cell-based, human
Procedure: 1.5×10^6 CA1D cells were transfected with either siNT (negative control) or siTROLL-8. 48 h after the transfection, the cells were collected and washed 2-3 times with ice-cold PBS. To analyze global metabolite abundances regulated by TROLL-8, an aliquot of the internal standard mixture was added into siNT and siTROLL-8 cell samples for untargeted metabolomics analysis. The internal standards were obtained from Cambridge Isotope Labs and include the following labelled compounds: Glucose (2,3,4,5,6-^13C5), D-Glucose-6-phosphate (U-^13C6), D-Fructose-1,6-bisphosphate (U-^13C6), L-Serine (^13C3), Glycine (1,2-^13C2), L-Cysteine (3,3-D2), Phosphoenol Pyruvate (2,3-^13C2), Lactate (3,3,3-D3), Pyruvate (D3), Acetyl-1,2-^13C2 CoA, Citric Acid (2,2,4,4-D4), Alpha-Ketoglutaric Acid (1,2,3,4-^13C4), Succinic Acid (D4), Fumaric Acid (D4), DL-Malic Acid (2,3,3-D3), D-Fructose-6-phosphate (U-^13C6). 1 ml of precooled 80% methanol extraction solvent (kept in the −80° C. freezer at least 1 h prior to extraction) was added to the sample for protein precipitation. After addition of the extraction solvent, the samples were vortexed and centrifuged at 18,800×g (Microfuge 22R, Beckman Coulter) at 0° C. for 10 min. Then, the samples were incubated for 30 min in a −80° C. freezer to increase metabolite extraction. After incubation, the samples were immediately centrifuged at 18,800×g at 4° C. for 10 min. Then the supernatant was transferred to a new microcentrifuge tube for drying in SpeedVac vacuum concentrator (Thermo Fisher Scientific). The protein pellet was resolubilized using aqueous 20 mM HEPES with 8M urea for Bradford Assay to measure the protein concentration. Dried metabolites were re-dissolved in 20 μl aqueous 80% methanol. Ultra-high performance liquid chromatography-high resolution mass spectrometry (UHPLC-HRMS) was performed using a Vanquish UHPLC interfaced with a Q Exactive HF quadrupole-orbital ion trap mass spectrometer (Thermo, San Jose, CA). Chromatographic separation was performed using a SeQuant ZIC-pHILIC guard column (2.1 mm ID×20 mm length, 5 μm particle size) and a SeQuant ZIC-pHILIC LC column (2.1 mm ID×150 mm length, 5 μm particle size, MilliporeSigma, Burlington, MA). Mobile phase A was aqueous 10 mM ammonium carbonate and 0.05% ammonium hydroxide, and mobile phase B was 100% acetonitrile. The gradient program included the following steps: start at 80% B, a linear gradient from 80 to 20% B over 13 min, stay at 20% B for 2 min, return to 80% B in 0.1 min, and re-equilibration for 4.9 min for a total run time of 20 min. The flow rate was set to 0.250 ml/min. The autosampler was cooled to 5° C. and the column temperature was set to 30° C. Sample injection volume was 2 μl for both positive ion mode and negative ion mode electrospray ionization. Full MS was performed in positive and negative mode separately detecting ions from m/z 65 to m/z 900. MZmine software, version 3.39, was used to identify and quantify metabolites by matching by m/z and RT to an in-house library. Data normalization was carried out using the protein concentration. For acetyl-CoA detection, spike heavily labelled internal standards (3 labelled Acyl CoAs) into each sample. For fatty acyl-carnitine detection, spike heavily labelled internal standards (3 labelled Acyl Carnitine) into each sample. An aliquot (300 μl) of cold 80% methanol extraction solvent (leave in −80° C. at least one hour prior to the experiments) is added to the sample for protein precipitation. After vortexing, the samples are then incubated in the −80° C. freezer for 30 mins, followed by centrifugation at 18,800×g (Microfuge 22R, Beckman Coulter) at 0° C. for 10 mins. Then the supernatant is transferred to new Eppendorf tubes for drying in SpeedVac vacuum concentrator (Thermo Fisher Scientific). The protein pellet is left behind and proceeds for protein concentration measurement by Bradford Assay. […]

[1] = biological target: T1, carnitine palmitoyltransferase 1A …; assay: co-IP with anti-CPT1A antibody from CA1D cell lysate, western blot
Excerpt: Beyond its classical activity, ACAT1 acetylates the Pyruvate Dehydrogenase Phosphatase Catalytic Subunit1 (PDP1) and the Pyruvate Dehydrogenase E1 Subunit Alpha1 (PDHA1) in the Pyruvate Dehydrogenase Complex (PDC), which negatively regulates the activity of Pyruvate Dehydrogenase (PDH) in glycolysis and tumor growth. […] In the experiment, we have the following groups: whole cell lysate (5% of the total input); cell lysate from either CA1D cells, or siNT/siTROLL-8 treated CA1D cells immunoprecipitated with CPT1A specific antibody; or the same cell lysate immunoprecipitated with normal IgG control antibody. […] While there is no change in the expression level of either CPT1A or ACAT1 in the whole cell lysate, CPT1A specifically immunoprecipitated more ACAT1 (by around 2-fold) in siTROLL-8 CA1D cells compared to non-treated cells, confirming the LC-MS discovery that TROLL-8 depletion increased the physical interaction between CPT1A and ACAT1.
4 mg cell lysate of CA1D cells were prepared using RIPA buffer and used to test the interaction between CPT1A and ACAT1. 4 mg cell lysate of either CA1D cells transfected with siRNAs for TROLL-8, or with the non-targeting siRNA as a negative control, were used to test the change in the interaction between CPT1A and ACAT1. The CoIP assay was performed according to the protocol provided with the anti-CPT1A primary antibody (15184-1-AP). […]

[2] = biological target: T1, carnitine palmitoyltransferase 1A …; assay: co-IP with anti-CPT1A antibody from CA1D cell lysate, LC-MS/MS proteomics
Procedure: 4 mg cell lysate of CA1D cells were prepared using RIPA buffer and used to test the interaction between CPT1A and ACAT1. 4 mg cell lysate of either CA1D cells transfected with siRNAs for TROLL-8, or with the non-targeting siRNA as a negative control, were used to test the change in the interaction between CPT1A and ACAT1. The CoIP assay was performed according to the protocol provided with the anti-CPT1A primary antibody (15184-1-AP). Add anti-CPT1A primary antibody (15184-1-AP, Proteintech) or negative control normal rabbit IgG (#2729, Cell Signaling) corresponding to the primary antibody source to the lysate with gentle rocking at 4° C. for 12 h. 50 ul Protein G Dynabeads slurry were added to capture the immunocomplex with gentle rocking at 4° C. for 12 h. Collect the beads with magnetic stand and discard the supernatant. Wash the beads 3 times with 1 ml 0.2% TBST, collect the beads with magnetic stand and discard the supernatant. […] The interaction was then detected via western blot using the following primary antibodies: CPT1A (ab128568, Abcam), ACAT1 (ab168342, Abcam), and beta-actin (A5441, Sigma-Aldrich).
1.5×10⁶ CA1D cells were transfected with either siNT (negative control) or siTROLL-8. […] The SDS-PAGE gel bands or the immunoprecipitated proteins were extracted, digested with trypsin, and analyzed via LC-MS/MS and the identified peptides are listed in Supplementary Data 1. […]

[3] = CA1D cells with shCPT1A and CPT1A WT/KQ/KR overexpression, mutants compared to CPT1A overexpression

fold change of ACAT1 immunoprecipitated by CPT1A (siTROLL-8 vs non-treated CA1D cells) [1] | fold change of co-immunoprecipitation with CPT1A (TROLL-8 depleted vs non-treated CA1D cells) [2] | Molecule | impact of fuel oxidation inhibitor in basal respiration upon TROLL-8 depletion (CA1D cells) | fatty acylcarnitine level (CPT1A; [3]) | free carnitine level (CPT1A; [3]) | long-chain fatty acylcarnitine levels (CPT1A; CA1D cells, 10 μM Etomoxir) | medium-chain fatty acylcarnitine levels (CPT1A; CA1D cells, 10 μM Etomoxir) | short-chain fatty acylcarnitine levels (CPT1A; CA1D cells, 10 μM Etomoxir) | level of carnitine (substrate for CPT1A activity) (CPT1A; CA1D cells, siNT, siTROLL-8, siNT+Eto, 10 μM Etomoxir)
 |  | CCOC(=O)[C@@]1(CCCCCCOc2ccc(Cl)cc2)CO1 [Etomoxir] | increased the impact | reduced | augmented | significantly reduced | significantly reduced | significantly reduced | increased
 |  | N#C/C(=C\c1cn(-c2ccccc2)c2ccccc12)C(=O)O [UK5099] | increased the impact |  |  |  |  |  | 
~2 fold | ~2 fold | ACAT1, the acetyl-CoA acetyltransferase 1 protein (enzyme, human, UniProt P24752 34-427, looked up, Endogenous protein co-immunoprecipitated with CPT1A from cell lysate; also called acetyltransferase ACAT1) VSKPTLKEVVIVSATRTPIGSFLGSLSLLPATKLGSIAIQGAIEKAGIPKEEVKEAYMGNVLQGGEGQAPTRQAVLGAGLPISTPCTTINKVCASGMKAIMMASQSLMCGHQDVMVAGGMESMSNVPYVMNRGSTPYGGVKLEDLIVKDGLTDVYNKIHMGSCAENTAKKLNIARNEQDAYAINSYTRSKAAWEAGKFGNEVIPVTVTVKGQPDVVVKEDEEYKRVDFSKVPKLKTVFQKENGTVTAANASTLNDGAAALVLMTADAAKRLNVTPLARIVAFADAAVEPIDFPIAPVYAASMVLKDVGLKKEDIAMWEVNEAFSLVVLANIKMLEIDPQKVNINGGAVSLGHPIGMSGARIVGHLTHALKQGEYGLASICNGGGGASAMLIQKL |  |  |  |  |  |  | 
